Source: patent publication US12538923B2, “Herbicidal compositions comprising imazethapyr” (BASF SE, priority 2024, dated 2026)

Tests used:
Format in all cases: in vivo
[1] = system: Amaranthus hybridus (AMACH); assay: Post-emergence field trial, herbicidal activity on AMACH
Protocol: (§1) In the examples below, using the method of S. R. Colby (1967) “Calculating synergistic and antagonistic responses of herbicide combinations”, Weeds 15, p. 22ff., the value E, which is expected if the activity of the individual active compounds is only additive, was calculated:
(§2) [formula] • where • X=percent activity using active herbicide A at an application rate a; • Y=percent activity using active herbicide B (e.g. imazethapyr) at an application rate b; • E=expected activity (in %) by A+B at application rates a+b.
(§3) If the value found experimentally is higher than the value E calculated according to Colby, a synergistic effect is present.
(§4) On field test sites, natural weed infestation or seeded weeds were treated post-emergence of the weeds.
(§5) In the field trials, the weeds were treated as indicated below.
(§6) In the following experiments, the herbicidal activity for the individual herbicidal compositions (solo and mixture applications) was assessed at the indicated days after treatment (DAT). The assessments for the damage on undesired weeds caused by the composition was carried out using a scale from 0 to 100%, compared to the untreated control plants. Here, 0 means no damage and 100 means complete destruction of the plants.
Herbicide A-1 (342 g/I) and imazethapyr-ammonium were, together with addition of 0.25 l/ha Dash® MSO Max as adjuvant, formulated in water as distribution medium (water volume 200 l/ha) and sprayed with commercial flat fan nozzles.

[2] = system: Amaranthus cruentus (AMACR); assay: Post-emergence field trial, herbicidal activity on AMACR; details: height 20-25 cm, 25 DAT, 0.25 l/ha Dash MSO Max
Protocol: as §1, §2, §3, §4, §5
as §6, with “the plants. […]” for “the plants.”

[3] = system: Amaranthus viridis (AMAVI); assay: Post-emergence field trial, herbicidal activity on AMAVI; details: growth stage 16-18, height 10-15 cm, 20 DAT, 0.5% MSO
Protocol: as §1, §2, §3, §4, §5, §6
(§7) Herbicide A-1 (342 g/l) and imazethapyr-ammonium were, together with addition of 0.5% MSO (methylated seed oil) as adjuvant, formulated in water as distribution medium (water volume […]) and sprayed with commercial flat fan nozzles.

[4] = system: Spermacoce latifolia (BOILF); assay: Post-emergence field trial, herbicidal activity on BOILF; details: 21 DAT
Protocol: as §1, §2, §3, §4, §5, §6, §7

[5] = system: Brachiaria plantaginea (BRAPL); assay: Post-emergence field trial, herbicidal activity on BRAPL; details: for % herbicidal activity: Table 2.5, 21 DAT, growth stage 24
Protocol: as §1, §2, §3, §4, §5, §6, §7

[6] = system: Digitaria horizontalis (DIGHO); assay: Post-emergence field trial, herbicidal activity on DIGHO; details: Table 2.5, 21 DAT, growth stage 24
Protocol: as §1, §2, §3, §4, §5
as §6, with “the plants. […]” for “the plants.”

[7] = system: Digitaria insularis (DIGIN); assay: Post-emergence field trial, herbicidal activity on DIGIN; details: Table 2.4, 21 DAT, weed height 20-40 cm
Protocol: as §1, §2, §3, §4, §5
as §6, with “the plants. […]” for “the plants.”

[8] = system: Eleusine indica (ELEIN); assay: Post-emergence field trial, herbicidal activity on ELEIN; details: 21 DAT
Protocol: as §1, §2, §3, §4, §5, §6, §7

[9] = system: Euphorbia heterophylla (EPHHL); assay: Post-emergence field trial, herbicidal activity on EPHHL; details: 21 DAT
Protocol: as §1, §2, §3, §4, §5, §6, §7

[10] = system: Galinsoga parviflora (GASPA); assay: Post-emergence field trial, herbicidal activity on GASPA; details: Table 2.6, 21 DAT, weed height 15-35 cm
Protocol: as §1, §2, §3, §4, §5
as §6, with “the plants. […]” for “the plants.”

[11] = system: Ipomoea triloba (IPOTR); assay: Post-emergence field trial, herbicidal activity on IPOTR; details: 21 DAT
Protocol: as §1, §2, §3, §4, §5, §6, §7

[12] = system: Portulaca oleracea (POROL); assay: Post-emergence field trial, herbicidal activity on POROL; details: growth stage 14-16, height 5-10 cm, 20 DAT, 0.5% MSO
Protocol: as §1, §2, §3, §4, §5
as §6, with “the plants. […]” for “the plants.”

## CCOC(=O)COc1ccccc1Oc1nc(-n2c(=O)cc(C(F)(F)F)n(C)c2=O)c(F)cc1Cl [Herbicide A-1, ethyl 2-[2-[[3-chloro-5-fluoro-6-[3-methyl-2,6-dioxo-4-(trifluoromethyl)pyrimidin-1-yl]-2-pyridyl]oxy]phenoxy]acetate]
[1]; AMACH, height 20-25 cm, A-1 25 g ai/ha solo, 25 DAT, 0.25 l/ha Dash MSO Max
  % herbicidal activity A-1: 91%
[1]; Table 3.1, 21 DAT, A-1 50 g ai/ha alone, growth stage 35
  % herbicidal activity: 85%
[2]; A-1 25 g ai/ha solo
  % herbicidal activity A-1: 93%
[3]; A-1 25 g ai/ha solo
  % herbicidal activity A-1: 69%
[3]; A-1 50 g ai/ha solo
  % herbicidal activity A-1: 84%
[4]; BOILF, growth stage 40, A-1 25 g ai/ha solo, 0.5% MSO
  % herbicidal activity A-1: 81%
[4]; Table 3.1, A-1 25 g ai/ha alone, growth stage 40
  % herbicidal activity: 81%
[5]; BRAPL, growth stage 21-25, height 10-15 cm, A-1 50 g ai/ha solo, 20 DAT, 0.5% MSO
  % herbicidal activity A-1: 73%
[5]; A-1 25 g ai/ha alone
  % herbicidal activity: 83%
[5]; A-1 50 g ai/ha alone
  % herbicidal activity: 93%
[6]; A-1 50 g ai/ha alone
  % herbicidal activity: 50%
[7]; A-1 50 g ai/ha alone
  % herbicidal activity: 38%
[8]; ELEIN, height 20-25 cm, A-1 25 g ai/ha solo, 0.5% MSO
  % herbicidal activity A-1: 45%
[8]; Table 2.7, A-1 50 g ai/ha alone, growth stage 35-61, height 3-5 cm
  % herbicidal activity: 87%
[8]; Table 3.2, A-1 50 g ai/ha alone, weed height 20-25 cm
  % herbicidal activity: 55%
[9]; EPHHL, growth stage 35, A-1 50 g ai/ha solo, 0.5% MSO
  % herbicidal activity A-1: 86%
[9]; Table 2.6, A-1 50 g ai/ha alone, weed height 15-35 cm
  % herbicidal activity: 96%
[9]; Table 2.7, A-1 25 g ai/ha alone, growth stage 18-65, height 5-15 cm
  % herbicidal activity: 94%
[10]; A-1 50 g ai/ha alone
  % herbicidal activity: 92%
[11]; IPOTR, growth stage 35, A-1 25 g ai/ha solo, 0.5% MSO
  % herbicidal activity A-1: 61%
[11]; Table 3.1, A-1 25 g ai/ha alone, growth stage 35
  % herbicidal activity: 61%
[12]; A-1 50 g ai/ha solo
  % herbicidal activity A-1: 58%

## CCc1cnc(C2=NC(C)(C(C)C)C(=O)N2)c(C(=O)O)c1.N (stereo not drawn) [Herbicide B-2, imazethapyr-ammonium, reference compound]
[1]; AMACH, height 20-25 cm, B-2 100 g ai/ha solo, 25 DAT, 0.25 l/ha Dash MSO Max
  % herbicidal activity B-2: 7%
[2]; B-2 100 g ai/ha solo
  % herbicidal activity B-2: 58%
[3]; B-2 100 g ai/ha solo
  % herbicidal activity B-2: 22%
[4]; BOILF, growth stage 40, B-2 100 g ai/ha solo, 0.5% MSO
  % herbicidal activity B-2: 23%
[5]; BRAPL, growth stage 21-25, height 10-15 cm, B-2 100 g ai/ha solo, 20 DAT, 0.5% MSO
  % herbicidal activity B-2: 0%
[5]; B-2 100 g ai/ha alone, listed as with A-1 25 g ai/ha
  % herbicidal activity: 0%
[5]; B-2 100 g ai/ha alone, listed as with A-1 50 g ai/ha
  % herbicidal activity: 0%
[6]; B-2 100 g ai/ha alone
  % herbicidal activity: 0%
[7]; B-2 100 g ai/ha alone
  % herbicidal activity: 13%
[8]; ELEIN, height 20-25 cm, B-2 100 g ai/ha solo, 0.5% MSO
  % herbicidal activity B-2: 0%
[8]; Table 2.7, B-2 100 g ai/ha alone, growth stage 35-61, height 3-5 cm
  % herbicidal activity: 10%
[9]; EPHHL, growth stage 35, B-2 100 g ai/ha solo, 0.5% MSO
  % herbicidal activity B-2: 10%
[9]; Table 2.6, B-2 100 g ai/ha alone, weed height 15-35 cm
  % herbicidal activity: 0%
[9]; Table 2.7, B-2 100 g ai/ha alone, growth stage 18-65, height 5-15 cm
  % herbicidal activity: 20%
[10]; B-2 100 g ai/ha alone
  % herbicidal activity: 0%
[11]; IPOTR, growth stage 35, B-2 100 g ai/ha solo, 0.5% MSO
  % herbicidal activity B-2: 22%
[12]; B-2 100 g ai/ha solo
  % herbicidal activity B-2: 30%
